Here are results for eight compounds from patent publication US20140024683A1, “CHLORIDE CHANNEL AND CHLORIDE TRANSPORTER MODULATORS FOR THERAPY IN SMOOTH MUSCLE DISEASES” (priority 2011, published 2014).

A word on the EC50: it is the concentration needed to bring the measured effect to its halfway point.

In experiment [1] the test system is human airway smooth muscle cells. The experiment can be described thus: FLIPR potentiometric dye membrane potential assay (Examples 9, 12). Type of experiment: cell-based. The conditions noted are these: 10 μM. How it is done:
To determine whether blockade of CaCCs or NKCCs induce membrane potential changes in cultured human airway smooth muscle cells, the FLIPR in vitro fluorescent dye assay (Molecular Devices) was used as described by Wafford et al. (2009). Briefly, human airway smooth muscle cells were grown to 100% confluence in 96-well black-walled plates and were washed with warmed (37° C.) normal-chloride buffer [consisting of (in mM) 130 sodium chloride, 2 CaCl2, 1 MgCl2, 10 D-glucose, and 10 HEPES, pH 7.4] four times. A stock solution (100% dye) of FLIPR blue dye (Molecular Devices) was prepared by reconstitution of 1 vial (125 mg) with 100 ml of the normal-chloride buffer (assay buffer). A 50% working stock was prepared by further diluting the reconstituted blue dye 1:1 with assay buffer and was used to load cells (90 μl/well) over 20 minutes at 37° C. All reagents were dissolved in assay buffer. Baseline fluorescence was measured for 3 minutes prior to the first control additions (assay buffer). […] The fluorescence produced by membrane potential change following solution additions was quantified after subtracting changes induced by assay buffer alone.

The test system is the same in experiment [2]. As to the kind of experiment: FLIPR membrane potentiometric dye assay (Example 21). Type of experiment: cell-based. On the procedure: Immortalized airway smooth muscle cell lines modified to stably express human telomerase reverse transcriptase were a kind gift from Dr. William Gerthoffer (University of Southern Alabama, Mobile, Ala.) prepared as described previously (Gosens et al., 2006) and grown in Dulbecco's Modified Eagle's Medium/F12 media (GIBCO, Grand Island, N.Y.), with 10% FBS and antibiotics.
Immortalized human airway smooth muscle cells were cultured on black-walled 96 well plates to 100% confluence, and were washed four times with warmed (37° C.) assay buffer of the following composition (in mM): NaCl 140, KCl 4.7, CaCl2 2.5, MgCl2 1.2, HEPES 11, D-glucose 10. A stock solution (100% dye) of FLIPR blue dye was prepared by reconstitution of 1 vial (125 mg) with 100 ml assay buffer. A 50% working stock was prepared by further diluting the reconstituted blue dye 1:1 with assay buffer and was used to load cells (90 μl/well) over 45 min at 37° C. in a humidified cell culture incubator (95% air/5% CO2). All reagents were dissolved in assay buffer. Fluorescence was measured with a Flex Station 3 (Molecular Devices) using an excitation wavelength of 530 nm, emission wavelength of 565 nm and a cutoff filter of 550 nm. Baseline fluorescence was measured every 2 seconds for 1 minute then for 2 minutes after injection of vehicle or compound of interest as indicated (using the Flexstation's 3 integrated injection capabilities).
Human airway smooth muscle cells were incubated with FLIPR membrane potentiometric dye to assess if the chloride channel blockers changed membrane potential at the cellular level. FLIPR fluorescence will increase with depolarization, and decrease with hyperpolarization. […] Therefore, chloride channel blockade, but not NKCC blockade, hyperpolarized human airway smooth muscle cells.

Experiment [3] concerns guinea pig tracheal rings. As to the kind of experiment: Organ bath muscle force, TEA-induced contraction of guinea pig tracheal rings (Examples 1, 4, 13). Particulars: for relaxation of TEA-induced contraction: 10 mM TEA. On the procedure: Epithelial denuded guinea pig tracheal rings were suspended in organ baths under 1 g resting tension with continuous digital recordings of muscle force. In separate studies, guinea pig airway smooth muscle cells were enzymatically dispersed and cultured.
Human muscle tissue was acquired from excess lung airways trimmed during surgery from healthy lung transplant donors. Acquired tissue was stored overnight at […]. Airway smooth muscle contractions measured ex vivo in organ baths were performed as previously described (Gallos et al., 2008; Gallos et al., 2009, Gallos et al., 2011; Gleason et al., 2010; Yim et al., 2011; Mitzuta et al., 2008). Closed guinea pig tracheal rings or strips of human airway smooth muscle (tracheal or main stem bronchus) were suspended in organ baths, which had 95% oxygen constantly perfusing through Dulbecco's Modified Eagle Medium. Rings were cut on the cartilaginous borders of the smooth muscle. The epithelial layer was dissected under microscopic assistance. Briefly, tissues were suspended in a water-jacketed (37° C.) 2-ml organ bath (Radnoti Glass Technology, Monrovia, Calif.) and attached to a Grass FT03 force transducer (Grass Telefactor, West Warwick, R.I.) coupled to a computer via BioPac hardware and Acqknowledge 7.3.3 software (Biopac Systems, Goleta, Calif.). Kreb's-Henseleit (KH) buffer was continuously bubbled with 95% oxygen and 5% carbon dioxide and tissues were allowed to equilibrate at 1 g (guinea pig) or 1.5 g (human) isotonic force for 1 hour with fresh KH buffer changes every 15 minutes.
Following equilibration, in guinea pig experiments, the capsaicin analog N-vanillylnonanamide (10 μM final) was added to the organ baths to first activate and then deplete nonadrenergic, noncholinergic nerves. […]. In experiments with human tissue, no vanillylnonanamide pretreatment was done. To avoid bias between treatment groups, tissues were contracted to individually calculated EC50 values for acetylcholine and tissues with similar Emax values were randomly assigned to treatments within individual experiments. Following extensive KH buffer changes (8-9 times) tissues were allowed to stabilize at isotonic resting tension (about 1.0 g). To remove confounding effects of other procontractile pathways, each bath received a complement of antagonists 20 minutes prior to subsequent contractile challenge. The antagonists included pyrilamine (10 μM; H1 histamine receptor antagonist), and tetrodotoxin (1 μM; blocker of endogenous cholinergic or C-fiber neuronal effects) in guinea pig experiments or pyrilamine and 10 μM MK571 (leukotriene receptor antagonist) in human tissue experiments. […]
Airway smooth muscle contractions measured ex vivo in organ baths were performed as set forth above. […]

Experiment [4] has as its system rat lung slices. The experiment can be described thus: Airway lumen area in peripheral small airways of rat lung slices. Particulars: contractile agonists. How it is done:
The measurement of airway contraction of a luminal area of small lung airways using the ex vivo rat lung slice method was performed as described (Perez-Zoghbi et al., 2007). The trachea was cannulated with an intravenous catheter, and after the chest cavity was opened, the collapsed lungs were reinflated with 1.3±0.1 ml of 2% agarose (low-gelling temperature) in Sigma-Hanks' Balanced Salt solution (sHBSS), followed by the injection of 0.2±0.1 of air to flush the agarose-sHBSS out of the airways and into the distal alveolar space. Subsequently, a warm (37° C.) solution of gelatin (type A, porcine skin, 300 bloom, 6% in sHBSS) was perfused through the intrapulmonary blood vessels via the pulmonary artery by injecting about 0.3 ml into the right ventricle. The warm agar and gelatin were gelled with cold sHBSS. A single lung lobe was removed and cut into serial sections of about 130 μm thick with a vibratome at about 4° C., starting at the lung periphery. Slices were maintained in DMEM (Invitrogen) at 37° C. and 10% CO2 for up to 3 days. At 37° C., the gelatin in the blood vessel lumen dissolved, leaving the blood vessel lumen empty. Lung slices were mounted in a custom-made perfusion chamber and held in place with a small sheet of nylon mesh. A second cover glass edged with silicone grease was placed over the lung slice. Perfusion of the lung slice was performed using a gravity-fed perfusion system. The volume of the chamber was about 100 μl with a perfusion rate of about 800 μl/min. […] Digital images were recorded in time lapse (30 frames/min). The area of the bronchiole and arteriole lumen was calculated, from each image, by pixel summing using custom-written software. Experiments were performed at room temperature.

Experiment [5] concerns guinea pig tracheal rings. The experiment can be described thus: Relaxation of TEA contraction in guinea pig tracheal rings (Example 16, library screen). Particulars: 10 mM TEA. How it is done: (§1) Animal protocols were approved by the Columbia University Animal Care and Use Committee. Male Hartley guinea pigs weighing approximately 400 g were anesthetized with intraperitoneal injection of sodium pentobarbital (100 mg/kg). Trachea were removed and transferred to ice cold Krebs-Henseleit (KH) buffer of the following composition (in mM): NaCl 118, KCl 5.6, CaCl2 0.5, MgSO4 0.24, NaH2PO4 1.3, NaHCO3 25, glucose 5.6, pH 7.4. Epithelial-denuded tracheal rings were prepared using a dissecting microscope. Epithelium was removed by gently passing cotton fibers through the lumen of the tracheal rings. The rings were suspended in 4 mL-water jacketed organ baths (37° C.: Radnoti Glass Technology, Monrovia, Calif.) and connected to a Grass FT03 force transducer (Grass Telefactor, West Warwick, R.I.) using silk sutures. The transducers were coupled to the computer with BioPac hardware and data was collected using Acqknowledge 7.3.3 software (BioPac Systems, Goleta, Calif.). KH buffer was bubbled with a gas mixture of 95% oxygen and 5% carbon dioxide and buffer was exchanged every 15 minutes for 1 hour during equilibration of tracheal rings at 1 g resting tension. […].

The subject of experiment [6] is guinea pig tracheal rings. As to the kind of experiment: Relaxation of potassium gluconate contraction in guinea pig tracheal rings. Particulars: 100 μM; 80 mM potassium gluconate. How it is done:
as §1
Many chloride channel blockers are known to also stimulate potassium channels (Greenwood et al., 2007). Thus, we performed additional studies in the presence of a large extracellular concentration of potassium to ensure that our findings of compound 1 or 13 inhibiting a TEA-induced depolarizing contraction were not due to these compounds opening a potassium channel.

Experiment [7] concerns human airway smooth muscle. The experiment can be described thus: Relaxation of acetylcholine contraction in human airway smooth muscle strips. The conditions noted are these: 100 μM alone; EC50 acetylcholine. On the procedure:
Studies using de-identified human tissue were reviewed by the Columbia University Institutional Review Board and deemed not human subjects research. Tissues were obtained from healthy, normal organ donor discarded surgical waste subsequent to lung transplant surgery. Tissues were collected after transplant and placed in DMEM media (GIBCO) and bubbled overnight in 5% carbon dioxide and 95% oxygen at 4° C. The following morning, the smooth muscle tissue was carefully dissected under a dissecting microscope and the epithelium removed. The strips were anchored in the organ bath as described above using KH buffer of the same composition. The strips were allowed to equilibrate for 1 hour with buffer exchanges every 15 minutes and were treated with 10^−6 M tetrodotoxin, 10^−5 M pyrilamine, and 10^−5
M MK571. Strips were contracted with an EC50 dose of acetylcholine (Ach)
This experiment was then repeated with human airway smooth muscle to investigate clinical relevance as a model of bronchospasm in humans.

The test system of experiment [8] is human airway smooth muscle cells. As to the kind of experiment: MQAE fluorescence assay of intracellular chloride. Type of experiment: cell-based. Particulars: 10 mM TEA-acetate. How it is done: To determine whether blockade of CaCCs or NKCCs induce changes in intracellular chloride concentrations in human airway smooth muscle cells, the MQAE in vitro fluorescent dye assay (Invitrogen) was used. Briefly, human airway smooth muscle cells were grown to 100% confluence in 96-well black-walled plates. Cells were loaded overnight with 10 mM MQAE in serum-free basal cell culture medium (M199, Invitrogen) and were washed once with warmed (37° C.) normal-chloride buffer [consisting of (in mM) 130 sodium chloride, 2 CaCl2, 1 MgCl2, 10 D-glucose, and 10 HEPES, pH 7.4]. […] An increase in fluorescence represents decreased intracellular chloride (removal of halide quenching of MQAE) while decreased fluorescence represents increased intracellular chloride (enhanced halide quenching of MQAE).

Experiment [9] deals with guinea pig tracheal rings. As to the kind of experiment: Potentiation of isoproterenol relaxation of acetylcholine contraction, guinea pig tracheal rings. The conditions noted are these: Cavia porcellus, read-out: EC50 of isoproterenol-mediated relaxation of an acetylcholine contraction. How it is done:
as §1
Therefore, we tested whether the chloride channel blockers or modulation of chloride flux could be used in combination with β-agonists to potentiate their effects. […]. Therefore, a combination of treatment with compound 13 and bumetanide potentiated the relaxation effect of isoproterenol.

Where “and” joins values, the source holds several entries; their conditions need not be identical. Equal entries are not always repeated. Structures can show the parent of a compound that is named as a salt. Where two headings read alike, the source gives them in different places. Bounds are passed on as bounds.

Regarding `O=c1[nH]c2cc(C(F)(F)F)ccc2n1-c1cc(C(F)(F)F)ccc1O` [NS1619], the “membrane potential change (FLIPR)” value in [1] is “positive control for hyperpolarization”. Also, in experiment [2], the “membrane potential, continuous fluorescence recording (representative tracing)” value was “hyperpolarize”.
For the compound `COC(=O)C1=C(C)NC(C)=C(C(=O)OC)C1c1ccccc1[N+](=O)[O-]` [nifedipine], the “relaxation of TEA-induced contraction” value in [3] (10 μM nifedipine) came to 111%.
As to `[Cl-].[K+]` [KCl, potassium chloride], in experiment [4], the “percent decrease in lumen area compared to rest” value is recorded as “significant decrease in lumen area”.
Turning to `NS(=O)(=O)c1cc(C(=O)O)c(NCc2ccco2)cc1Cl` [furosemide], in [3] (300 μM furosemide), the “relaxation of TEA-induced contraction” value is 77.6%.
Regarding `O=C(O)c1cc(Cl)ccc1NCc1ccc(Cl)cc1` [compound 1, 5-chloro-2-((4-chlorobenzyl)amino)benzoic acid], in [5] (100 μM), the “percent of the TEA-induced contraction remaining at 15 minutes” value is 23.8±14.9% and the “relaxed fraction of a TEA-induced contraction at 15 minutes after drug addition” value was 76.2%. Also, in experiment [5], the “relaxation of TEA-induced contraction (screen of 20-compound chloride channel blocker library)” value is listed as “most potently relax”. The “time to complete relaxation of TEA contraction” value in [5] (representative tracing) was at most 15 min. The “percent of potassium gluconate-induced contraction at 30 minutes” value in experiment [6] is 61.46%±6.3 and 61.5%±6.3. For the same compound, the “relaxation of acetylcholine contraction” value in experiment [7] is 45.4%±6.3. For the same compound, the “membrane potential, continuous fluorescence recording (representative tracing)” value in [2] is “hyperpolarize”. Further, in [2] (100 μM, n=12), the “change in relative fluorescent units (membrane potential, FLIPR)” value is reported as −240.3+/−35 RFU.
`CC(=O)[O-].CC[N+](CC)(CC)CC` [TEA-acetate, tetraethylammonium (TEA)-acetate]: the “intracellular chloride (MQAE fluorescence)” value in [8] was “decreased intracellular chloride concentrations”.
For the compound `O=C(O)c1cccnc1Nc1cccc(C(F)(F)F)c1` [water-soluble NFA, sodium salt of niflumic acid], in [3] (10 μM, water soluble form compared to hydrophobic parent NFA), the “potency at relaxing airway smooth muscle (muscle force at 60 minutes as a percent of initial force after TEA treatment)” value is given as “enhanced potency”.
As for `CC(C)NCC(O)c1ccc(O)c(O)c1` (stereo not shown) [isoproterenol], the EC50 was found to be 5.99 nM in experiment [9] (vehicle); 2.51 nM in experiment [9] (with 10 μM bumetanide); 2.7 nM in [9] (with 50 μM compound 13); 0.477 nM in [9] (with 50 μM compound 13 and 10 μM bumetanide).
